Data on one compound can be found in patent US20150328169A1, “POLYMERIC PARTICLES-BASED TEMOZOLOMIDE DOSAGE FORM” (OY FILANA LTD, priority 2012, published 2015).

The structures appear in SMILES notation.

The subject of one data set is B16 melanoma tumor. The experiment in a line: Antitumor activity in vivo, solid tumor of B-16 mouse melanoma. Further details: species or system mice. The following applies: 40 mg/kg, 9th day of treatment.
For data set [1] the following is noted: clinical trials; cited from earlier work.
In another data set the test system is Balb/c mice. The experiment in a line: Acute toxicity, single intraperitoneal dose, Litchfield-Wilcoxon. Format: in vivo. The settings on record: i.p. single dose; for LD16 / LD84 / LD100: 14th day. The protocol: (§1) The comparative analysis of the acute toxic action of the temozolomide substance and of the polymeric composition based thereon (Composition 1 as in Example 1) was performed on male and female Balb/c mice weighing 19-21 g as of the time of testing, 6 animals in each group. The mice were kept in standard cages No. 4, in the conditions of unlimited access to water and food, at natural lighting changes. Testing the toxic action of the drugs started upon a two-week isolation period of the animals. The drug was administered intraperitoneally, as a single dose. Water for injection was used as a medium. Upon the drug administration, the animals were continuously monitored for 24 hours. The total observation time was 28 days. According to the research results, the LD50 values were calculated as per the state of animals on the 14th day upon the administration of the drugs. The value of the mean lethal dose (LD50) was determined by Litchfield-Wilcoxon method [Belenky M. L. Elementy kolichestvennoy otsenki farmakologicheskogo effekta [In Russian: Elements of Drug-Induced Effect Quantitative Estimation]/2-e izd. pererab. i dop. L.: Medgiz, 1963. p. 81-106].

Assay in data set [2]: as above
Format: in vivo, mice. The settings on record: mouse, in vivo, ip, i.p. single dose, 14th day. As to the method:
as §1

Regarding `Cn1nnc2c(C(N)=O)ncn2c1=O` [Temozolomide Substance, 8-carbamoyl-3-methyl-imidazo[5,1-d]-1,2,3,5-tetrazin-4-(3H)-one], the “tumor growth inhibition (TGI)” value in the data set on B16 melanoma tumor came out at 90%. Moreover, the half lifetime in data set [1] is 1.8 h. Moreover, in the data set with Balb/c mice (female Balb/c mice), the Toxic dose range entry is on record as “Toxic dose range was 426.5-526.7 mg/kg”, the LD16 entry is “LD16 426.5 mg/kg”, the LD84 entry is on record as “LD84 506.7 mg/kg” and the LD100 entry is recorded as “LD100 526.7 mg/kg”. Also, in the data set with Balb/c mice (male Balb/c mice), the Toxic dose range result is “Toxic dose range was 424.0-543.5 mg/kg”, the LD16 result is given as “LD16 424.0 mg/kg”, the LD84 result was “LD84 519.6 mg/kg” and the LD100 entry is given as “LD100 543.5 mg/kg”. Moreover, the LD50 at 14 days in data set [2] (female Balb/c mice) is 467 mg/kg. The LD50 at 14 days in data set [2] (male Balb/c mice) came out at 472 mg/kg.
